# From ChEMBL document CHEMBL1122771, “Effects of volume and surface property in hydrolysis by acetylcholinesterase. The trimethyl site” (J Med Chem, 1984)
# How the values were obtained:
# [1] = Compound was tested for hydrolysis by acetylcholinesterase and the kinetic constant (kcat) which is a first-order rate constant was determined
# acetylcholinesterase [2] = assay: Compound was tested for hydrolysis by acetylcholinesterase and the kinetic constant, (Km) an apparent dissociation constant, and related to the enzyme's affinity for the substrate was reported; assay type: ADME
# acetylcholinesterase [3] = assay: in vitro
# Description: Compound was tested for hydrolysis by acetylcholinesterase and the kinetic constant, (Km) an apparent dissociation constant, and related to the enzyme's affinity for the substrate was reported.
SMILES,k cat [1] [s⁻¹],Km (acetylcholinesterase [2]) [mM],Km (acetylcholinesterase [3]; acetylcholinesterase) [mM],Km (acetylcholinesterase [3]) [mM]
CC(=O)OCCS(C)(=O)=O,11,6.2,,
CC(=O)OCCCl,3400,,14,
CC(=O)OCCC(C)C,3400,,3.6,
CC(=O)OCCBr,4500,,7.5,
CC(=O)OCCC(C)(C)C,66,5.3,,
CSCCOC(C)=O,3500,,15,
CC(=O)OCC[N+](C)(C)[O-],4500,,18,
CC(=O)OCC[S+](C)[O-] (stereo not given),3800,,16,
CC(=O)OCC[Si](C)(C)C,5700,,3.5,
CC(=O)OCC[S+](C)C.[Br-],7700,,0.33,
CCCCOC(C)=O [ACETIC ACID BUTYL ESTER],36,,,13
CC(=O)OCC[N+](C)(C)C [ACETYLCHOLINE],160,0.33,,
CCOC(C)=O [ETHYL ACETATE],2900,,,
